According to US10093666B2, “Deuterated O-sulfated beta lactam hydroxamic acids and deuterated N-sulfated beta lactams” (ARIXA PHARMACEUTICALS, INC., priority 2016, dated 2018):

Columns and labels:
[1] = Oral dosing of rats (cassette), plasma concentration vs. time by LC/MS/MS; details: for Ratio of b/a: ratio of plasma concentrations b to a (tigemonam), oral
Method: (§1) Samples were withdrawn at various time points indicated below and processed using the following procedure. A 50 μL rat plasma sample was transferred to a well of a 96 well-plate, 20 μL of 0.1 ng/μL of Losartan (internal standard) in acetonitrile was added and 300 μL of acetonitrile/formic acid (100/2). The sample was then vortexed and centrifuged at 300 rpm for 5 minutes. Then 200 μL of the supernatant was mixed with 200 μL of double distilled water and was injected (5 μL) on a phenomex Polar-RF 80A column (75×2.0 mm), which was run at 30° C. at a flow rate of 600 μL/minute with a mobile phase A of acetonitrile/formic acid 100/0.02 and a mobile phase B of water/formic acid 100/0.02. The eluate was analyzed by LC/MS/MS (electrospray) to provide the following values of plasma concentration vs. time listed in Table 1, which were then plotted to yield the graph illustrated in FIG. 2.
Each time point above represents a value obtained by averaging the measured plasma concentration of three rats. […] Other compounds may also be tested in the above assay.

[2] = IV dosing of rats (cassette), plasma concentration vs. time by LC/MS/MS; details: for Ratio of b/a: ratio of plasma concentrations b to a (tigemonam), rats, IV
Method: as §1, with “A cohort of three rats was IV dosed using 2 mg/kg cassette IV dosing. […] Samples” for “Samples”, “Polar-RP” for “Polar-RF”, “100/0.02.” for “100/0.02. The eluate was analyzed by LC/MS/MS (electrospray) to provide the following values of plasma concentration vs. time listed in Table 1, which were then plotted to yield the graph illustrated in FIG. 2.”
Each time point above represents a value obtained by averaging the measured plasma concentration of three rats.

[2H]C([2H])([2H])C1(C([2H])([2H])[2H])[C@H](NC(=O)/C(=N\OCC(=O)O)c2csc(N)n2)C(=O)N1OS(=O)(=O)O [b]
effect of deuteration of tigemonam on oral bioavailability ([1]; rat, in vivo, po): increase | plasma level greater than the plasma level of tigemonam ([1]; rat, in vivo, po, 5 mg/kg): at least 20% | r = b − a ([1]; rat, in vivo, po, 0.167 h): 266 | r = b − a ([1]; rat, in vivo, po, 0.5 h): 694 | r = b − a ([1]; rat, in vivo, po, 1 h): 531 | r = b − a ([1]; rat, in vivo, po, 2 h): 175 | r = b − a ([1]; rat, in vivo, po, 4 h): 55 | r = b − a ([1]; rat, in vivo, po, 6 h): 4 | r = b − a ([1]; rat, in vivo, po, 8 h): 1 | r = b − a ([1]; rat, in vivo, po, 24 h): 0 | Ratio of b/a ([1]; rats, 0.167 hours): 1.19 | Ratio of b/a ([1]; rats, 0.5 hours): 1.24 | Ratio of b/a ([1]; rats, 1 hours): 1.25 | Ratio of b/a ([1]; rats, 2 hours): 1.26 | Ratio of b/a ([1]; rats, 4 hours): 1.48 | Ratio of b/a ([1]; rats, 8 hours): 1.25 | Ratio of b/a ([1]; rats, C6 hours): 1.15 | oral absorption compared with tigemonam ([1]; rats, oral cassette dosing, 5 mg/kg each): increased level | effect of deuteration of tigemonam on IV bioavailability ([2]; rat, in vivo, iv): no effect | plasma levels compared with tigemonam ([2]; rat, in vivo, iv, 1 mg/kg): almost identical | r = b − a ([2]; rat, in vivo, iv, 0.167 h): 235 | r = b − a ([2]; rat, in vivo, iv, 0.5 h): 19 | r = b − a ([2]; rat, in vivo, iv, 1 h): −31 | r = b − a ([2]; rat, in vivo, iv, 2 h): 21 | r = b − a ([2]; rat, in vivo, iv, 4 h): 2 | r = b − a ([2]; rat, in vivo, iv, 6 h): −2 | r = b − a ([2]; rat, in vivo, iv, 8 h): 0 | r = b − a ([2]; rat, in vivo, iv, 24 h): 0 | Ratio of b/a ([2]; 0.167 hours): 1.04 | Ratio of b/a ([2]; 0.5 hours): 1.01 | Ratio of b/a ([2]; 1 hours): .9 | Ratio of b/a ([2]; 2 hours): 1.14 | Ratio of b/a ([2]; 4 hours): 1.06 | Ratio of b/a ([2]; 6 hours): .6
